Values quoted from earlier work, collected in patent US6365176B1, “Nutritional supplement for patients with type 2 diabetes mellitus for lipodystrophy” (Functional Foods, Inc., priority 2000, dated 2002).

Tests used:
[1] = doses between 200 and 1,000 μg daily
[2] = in vivo

Compound	fasting plasma glucose concentrations [1]	glycemic index (GI) [2]
chromium picolinate [Chromium as picolinate]	beneficial effect	–
O=C(CO)[C@@H](O)[C@H](O)[C@H](O)CO [Fructose]	–	32
